Source: patent publication US8039481B2, “Tetrahydrofuran derivatives for use as inhibitors of matrix metalloproteinases” (Sanofi-Aventis, priority 2005, dated 2011)

Legend:
Format in all cases: biochemical
[1] = target: catalytic domain of human gelatinase-A (MMP-2) (Homo sapiens, UniProt P08253); test: Enzymatic activity of the catalytic domain of human gelatinase-A (MMP-2), fluorogenic substrate
Procedure: Determination of the Enzymatic Activity of the Catalytic Domain of Human Gelatinase-A (MMP-2)
(§1) Activation of the proenzyme: 2 parts by volume of proenzyme were incubated with 1 part by volume of APMA solution at 37° C. for 0.5 hours. The APMA solution was prepared from a 10 mmol/l p-aminophenylmercuric acetate solution in 0.1 mmol/l NaOH by dilution with 3 parts by volume of Tris/HCl buffer pH 7.5 (see below). The pH was adjusted to between 7.0 and 7.5 by adding 1 mmol/l HCl. After activation of the enzyme it was diluted with the Tris/HCl buffer to a concentration of 0.83 μg/ml.
(§2) The enzymic activity was measured by incubating 10 μl of enzyme solution with 10 μl of a 3% strength (v/v) buffered dimethyl sulfoxide solution (reaction 1) for 15 minutes. The enzyme inhibitor activity was measured by incubating 10 μl of enzyme solution with 10 μl of a 3% strength (v/v) buffered dimethyl sulfoxide solution which contained the enzyme inhibitor (reaction 2).
The enzymic reaction both in the case of reaction 1 and in the case of reaction 2 was followed after addition of 10 μl of a 3% strength (v/v) aqueous dimethyl sulfoxide solution which contained 0.3 mmol/l of the substrate by fluorescence spectroscopy (328 nm (extinction)/393 nm (emission)).
The enzymic activity has been presented as increase in extinction/minute. The effect of the inhibitor was calculated as percentage inhibition by the following formula: % inhibition=100−[(increase in extinction/minute in reaction 2)/(increase in extinction/minute in reaction 1)×100].
(§3) The IC50, which is the concentration of inhibitor which is necessary for 50% inhibition of the enzymic activity, was determined graphically by plotting the percentage inhibitions at various inhibitor concentrations.
(§4) The buffer solution contained 0.05% Brij (Sigma, Deisenhofen, Germany) and 0.1 mol/l Tris/HCl, 0.1 mol/l NaCl, 0.01 mol/l CaCl2 (pH=7.5). The enzyme solution contained 0.83 μg/ml of the enzyme domain. The substrate solution contained 0.3 mmol/l of the fluorogenic substrate (7-methoxycoumarin-4-yl)acetyl-Pro-Leu-Gly-Leu-3-(2′,4′-dinitrophenyl)-L-2,3-diaminopropionyl-Ala-Arg-NH2 (Bachem, Heidelberg, Germany).

[2] = target: catalytic domain of human gelatinase-A (MMP-9) (Homo sapiens, UniProt P14780); test: Enzymatic activity of the catalytic domain of human gelatinase-A (MMP-9), fluorogenic substrate
catalytic domain of human gelatinase-A (MMP-9), sequence (P14780 107-444 limits assumed): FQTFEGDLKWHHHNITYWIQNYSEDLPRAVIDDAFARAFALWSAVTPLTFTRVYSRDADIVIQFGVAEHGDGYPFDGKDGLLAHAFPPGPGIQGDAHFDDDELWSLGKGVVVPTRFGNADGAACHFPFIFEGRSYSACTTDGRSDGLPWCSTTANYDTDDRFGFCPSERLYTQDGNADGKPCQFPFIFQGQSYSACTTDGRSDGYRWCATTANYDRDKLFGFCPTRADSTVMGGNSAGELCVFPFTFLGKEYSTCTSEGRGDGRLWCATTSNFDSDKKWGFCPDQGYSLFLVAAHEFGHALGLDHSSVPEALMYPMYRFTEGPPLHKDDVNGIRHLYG
Procedure: Determination of the Enzymatic Activity of the Catalytic Domain of Human Gelatinase-A (MMP-9)
Activation of the proenzyme:
as §1, with “2” for “Activation of the proenzyme: 2”, “4” for “0.5”, “4.2 mU/ml.” for “0.83 μg/ml.”
as §2
The enzymic reaction both in the case of reaction 1 and in the case of reaction 2 was followed after addition of 10 μl of a 3% strength (v/v) aqueous dimethyl sulfoxide solution which contained 0.15 mmol/l of the substrate by fluorescence spectroscopy (328 nm (extinction)/393 nm (emission)).
The enzymic activity has been presented as increase in extinction/minute.
The effect of the inhibitor was calculated as percentage inhibition by the following formula: % inhibition=100−[(increase in extinction/minute in reaction 2)/(increase in extinction/minute in reaction 1)×100].
as §3
as §4, with “4.2 mU/ml” for “0.83 μg/ml”, “0.15” for “0.3”

[3] = target: T1, catalytic domain of human stromelysin (MMP-3) (Homo sapiens, UniProt P08254); test: Enzymatic activity of the catalytic domain of human stromelysin (MMP-3), fluorogenic substrate
T1 construct: Preparation and determination of the enzymatic activity of the catalytic domain of human stromelysin (MMP-3); made in house
T1 sequence (P08254 100-272 limits assumed): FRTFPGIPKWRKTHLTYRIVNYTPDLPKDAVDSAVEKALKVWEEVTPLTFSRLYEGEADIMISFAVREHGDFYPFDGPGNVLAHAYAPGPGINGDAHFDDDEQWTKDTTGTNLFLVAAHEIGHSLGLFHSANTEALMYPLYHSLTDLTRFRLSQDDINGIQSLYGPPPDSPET
Procedure: (§5) Preparation and determination of the enzymatic activity of the catalytic domain of human stromelysin (MMP-3) and of neutrophil collagenase (MMP-8). The two enzymes stromelysin (MMP-3) and neutrophil collagenase (MMP-8) were prepared by the method of Ye et al. (Biochemistry; 31 (1992) pages 11 231-11 235). The enzymic activity or the effect of the enzyme inhibitor was measured by incubating 10 μl of enzyme solution with 10 μl of a 3% strength (v/v) buffered dimethyl sulfoxide solution which contained the enzyme inhibitor where appropriate, for 15 minutes. After addition of 10 μl of a 3% strength (v/v) aqueous dimethyl sulfoxide solution which contained 1 mmol/l of the substrate, the enzymic reaction was followed by fluorescence spectroscopy (328 nm (ex)/393 nm(em)).
(§6) The enzymic activity is presented as increase in extinction/minute. The IC50 values listed in Table 2 were determined as the inhibitor concentrations leading in each case to 50% inhibition of the enzyme.
(§7) The buffer solution contained 0.05% Brij (Sigma, Deisenhofen, Germany) and 0.1 mol/l Tris/HCl, 0.1 mol/l NaCl, 0.01 mol/l CaCl2 and 0.1 mol/l piperazine-N,N′-bis[2-ethanesulfonic acid] (pH=7.5).
(§8) The MMP-3 enzyme solution contained 2.3 μg/ml and the MMP-8 enzyme solution 0.6 μg/ml of one of the enzyme domains prepared by the method of Ye et al. The substrate solution contained 1 mmol/l of the fluorogenic substrate (7-methoxycoumarin-4-yl)acetyl-Pro-Leu-Gly-Leu-3-(2′,4′-dinitrophenyl)-L-2,3-diaminopropionyl-Ala-Arg-NH2 (Bachem, Heidelberg, Germany).

[4] = target: T2, catalytic domain of neutrophil collagenase (MMP-8) (Homo sapiens, UniProt P22894); test: Enzymatic activity of the catalytic domain of neutrophil collagenase (MMP-8), fluorogenic substrate
T2 construct: catalytic domain of human stromelysin (MMP-3) and of neutrophil collagenase (MMP-8); made in house
T2 sequence (P22894 100-262 limits assumed): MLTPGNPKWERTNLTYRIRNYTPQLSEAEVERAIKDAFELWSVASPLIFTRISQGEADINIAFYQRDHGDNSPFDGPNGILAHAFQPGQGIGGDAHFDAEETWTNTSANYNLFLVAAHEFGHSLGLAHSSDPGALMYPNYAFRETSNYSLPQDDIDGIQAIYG
Procedure: as §5, §6, §7, §8

catalytic domain of human gelatinase-A (MMP-2), sequence (P08253 110-465 limits assumed): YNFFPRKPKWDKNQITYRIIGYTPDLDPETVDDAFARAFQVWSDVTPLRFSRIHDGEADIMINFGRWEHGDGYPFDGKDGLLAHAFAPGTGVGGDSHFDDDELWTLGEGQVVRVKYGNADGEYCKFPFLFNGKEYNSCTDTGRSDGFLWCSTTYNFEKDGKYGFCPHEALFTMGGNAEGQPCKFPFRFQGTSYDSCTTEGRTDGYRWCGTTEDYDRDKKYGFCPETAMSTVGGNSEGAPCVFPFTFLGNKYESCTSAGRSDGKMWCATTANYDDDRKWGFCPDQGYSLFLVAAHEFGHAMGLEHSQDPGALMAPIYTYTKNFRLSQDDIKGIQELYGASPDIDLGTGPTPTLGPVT

| Compound | IC50 [1] [nM] | IC50 [2] [nM] | IC50 [3] [nM] | IC50 [4] [nM] |
| --- | --- | --- | --- | --- |
| O=C(NO)[C@H]1[C@H]2CCO[C@H]2CCN1S(=O)(=O)c1ccc(Oc2ccc(F)cc2)cc1 [Example 12] | 0.8 | 1.3 | 14 | 2 |
| O=C(NO)C1C2CCOC2CCN1S(=O)(=O)c1ccc(Oc2ccc(F)cc2)cc1 (centres unmarked) [Example 11, 5-[4-(4-fluorophenoxy)benzenesulfonyl]octahydrofuro[3,2-c]pyridine-4-(N-hydroxy)-carboxamide] | 2 | 3 | 34 | 6 |
| O=C(NO)[C@H]1[C@H]2CCO[C@H]2CCN1S(=O)(=O)c1ccc(-c2ccc(Cl)cc2)cc1 [Example 8] | 0.8 | 1.5 | 13 | 1 |
| O=C(NO)C1C2CCOC2CCN1S(=O)(=O)c1ccc(-c2ccc(Cl)cc2)cc1 (centres unmarked) [Example 7, 5-(4′-chlorobiphenyl-4-sulfonyl)octahydrofuro[3,2-c]pyridine-4-(N-hydroxy)-carboxamide] | 1.7 | 2.4 | 29 | 2.4 |
| O=C(NO)[C@@H]1[C@@H]2CCO[C@@H]2CCN1S(=O)(=O)c1ccc(Oc2ccc(F)cc2)cc1 [Example 13] | 47 | 150 | 1500 | 150 |
| O=C(O)C1C2CCOC2CCN1S(=O)(=O)c1ccc(-c2ccc(Cl)cc2)cc1 (centres unmarked) [Example 6, 5-(4′-chlorobiphenyl-4-sulfonyl)octahydrofuro[3,2-c]pyridine-4-carboxylic acid] | 38 | 2200 | 3500 | 54 |
| CS(=O)(=O)c1ccc(Oc2ccc(S(=O)(=O)N3CC[C@@H]4OCC[C@@H]4[C@@H]3C(=O)NO)cc2)cc1 [Example 23] | 1 | 5 | 15 | 2 |
| O=C(NO)[C@@H]1[C@@H]2CCO[C@@H]2CCN1S(=O)(=O)c1ccc(-c2ccc(Cl)cc2)cc1 [Example 9] | 71 | 120 | 1100 | 170 |
| O=C(O)C1C2CCOC2CCN1S(=O)(=O)c1ccc(Oc2ccc(F)cc2)cc1 (centres unmarked) [Example 10, 5-[4-(4-fluorophenoxy)benzenesulfonyl]octahydrofuro[3,2-c]pyridine-4-carboxylic acid] | 440 | 2500 | > 10000 | 410 |
| N#Cc1ccc(Oc2ccc(S(=O)(=O)N3CC[C@@H]4OCC[C@@H]4[C@@H]3C(=O)NO)cc2)cc1 [Example 21] | 1 | 8 | 17 | 2 |
| O=C(NO)C1C2CCOC2CCN1S(=O)(=O)c1ccc(Oc2ccc(Cl)cc2)cc1 (centres unmarked) [Example 18, 5-[4-(4-chlorophenoxy)benzenesulfonyl]octahydrofuro[3,2-c]pyridine-4-(N-hydroxy)-carboxamide] | 2 | 2 | 27 | 24 |
